In patent publication US8278345B2, “Inhibitors of glutaminyl cyclase” (Probiodrug AG, priority 2006, dated 2012) one finds IC50 and Ki data, which are given here for 35 compounds.

Where two headings read alike, the source gives them in different places.

The target in the assay is hQC (Homo sapiens, UniProt Q16769). The experiment in a line: Inhibitor assay for glutaminyl cyclase activity (fluorometric, H-Gln-βNA / H-Gln-AMC). The format is biochemical. Put shortly:
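Coupled fluorometric assay at 30 °C with pyroglutamyl aminopeptidase, in Tris/HCl pH 8.0 with EDTA, substrate H-Gln-βNA (0.2 mM; ex/em 320/410 nm) or H-Gln-AMC (ex/em 380/460 nm), initiated by QC. Screening: 4 mM inhibitor, substrate at 1 KM; Ki from progress curves fitted to competitive inhibition.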

The mark [1] stands for this setting: compound from preparative synthesis, purified, read-out: IC50 hQC.

Sequence of hQC (Q16769 29-361): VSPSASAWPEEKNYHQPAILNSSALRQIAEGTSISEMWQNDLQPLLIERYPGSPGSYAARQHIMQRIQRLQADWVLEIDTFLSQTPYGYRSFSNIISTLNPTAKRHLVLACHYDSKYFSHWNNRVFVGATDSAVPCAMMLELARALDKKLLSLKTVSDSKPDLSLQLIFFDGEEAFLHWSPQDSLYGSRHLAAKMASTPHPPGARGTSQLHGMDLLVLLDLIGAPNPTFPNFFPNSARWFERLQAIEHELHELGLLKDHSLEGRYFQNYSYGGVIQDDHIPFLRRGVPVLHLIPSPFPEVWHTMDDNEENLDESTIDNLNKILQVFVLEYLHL

On to `CCC1=C(O)C(=O)N(c2ccc3[nH]cnc3c2)C1c1coc2ccc(C)cc2c1=O` (stereo not drawn) [Compound 428, 1-(1H-Benzoimidazol-5-yl)-4-ethyl-3-hydroxy-5-(6-methyl-4-oxo-4H-chromen-3-yl)-1,5-dihydro-pyrrol-2-one], for which, under “read-out: IC50”, the IC50 stood at 40 nM.

`O=C1C(O)=C(c2ccccc2)C(Cc2ccccc2)N1CCCn1ccnc1` (stereo not drawn) [Compound 99, 5-Benzyl-3-hydroxy-1-(3-imidazol-1-yl-propyl)-4-phenyl-1,5-dihydro-pyrrol-2-one]: the IC50 (read-out: IC50) amounted to 40 nM. On to `CCCCCC1=C(O)C(=O)N(CCCn2ccnc2)C1C(F)(F)F` (stereo not drawn) [Compound 203, 3-Hydroxy-1-(3-imidazol-1-yl-propyl)-4-pentyl-5-trifluoromethyl-1,5-dihydro-pyrrol-2-one], for which the half-maximal inhibitory concentration (IC50) (read-out: IC50) came to 40 nM. With `Cc1ccc(C2C(c3ccccc3)=C(O)C(=O)N2CCCn2ccnc2)cc1C` (stereo not drawn) [Compound 88, 5-(3,4-Dimethyl-phenyl)-3-hydroxy-1-(3-imidazol-1-yl-propyl)-4-phenyl-1,5-dihydro-pyrrol-2-one], the half-maximal inhibitory concentration (IC50) (read-out: IC50) is 1300 nM. As to `O=C(O)CC1=C(O)C(=O)N(c2ccc3[nH]cnc3c2)C1c1c(F)ccc(Cl)c1F` (stereo not drawn) [Compound 358, [1-(1H-Benzoimidazol-5-yl)-2-(3-chloro-2,6-difluoro-phenyl)-4-hydroxy-5-oxo-2,5-dihydro-1H-pyrrol-3-yl]-acetic acid], the half-inhibitory concentration (IC50) (read-out: IC50) was found to be 4540 nM. Regarding `Cc1ccc(C2C(C(=O)C3CCCCC3)=C(O)C(=O)N2c2ccc3[nH]cnc3c2)o1` (stereo not drawn) [Compound 273, 1-(1H-Benzoimidazol-5-yl)-4-cyclohexanecarbonyl-3-hydroxy-5-(5-methyl-furan-2-yl)-1,5-dihydro-pyrrol-2-one], for the setting “read-out: IC50”, the concentration for half-maximal inhibition (IC50) turned out to be 580 nM. In the case of `Cc1ccc(C2C(c3ccc(O)cc3)=C(O)C(=O)N2CCCn2ccnc2)cc1C` (stereo not drawn) [Compound 158, 5-(3,4-Dimethyl-phenyl)-3-hydroxy-4-(4-hydroxy-phenyl)-1-(3-imidazol-1-yl-propyl)-1,5-dihydro-pyrrol-2-one], the IC50 came to 214 nM under setting [1] and 40 nM (read-out: IC50). For the compound `Cc1ccc2occ(C3C(c4ccccc4)=C(O)C(=O)N3c3ccc4[nH]cnc4c3)c(=O)c2c1` (stereo not drawn) [Compound 262, 1-(1H-Benzoimidazol-5-yl)-3-hydroxy-5-(6-methyl-4-oxo-4H-chromen-3-yl)-4-phenyl-1,5-dihydro-pyrrol-2-one], the IC50 (read-out: IC50) was found to be 850 nM. Still for that read-out and setting: as for `CC(=O)C1=C(O)C(=O)N(c2ccc3[nH]cnc3c2)C1c1cccc(C)c1` (stereo not drawn) [Compound 283, 4-Acetyl-1-(1H-benzoimidazol-5-yl)-3-hydroxy-5-m-tolyl-1,5-dihydro-pyrrol-2-one], the figure is 400 nM; as for `CC(C)C1=C(O)C(=O)N(CCCn2ccnc2)C1Cc1ccccc1` (stereo not drawn) [Compound 68, 5-Benzyl-3-hydroxy-1-(3-imidazol-1-yl-propyl)-4-isopropyl-1,5-dihydro-pyrrol-2-one], 40 nM; as for `CC(=O)C1=C(O)C(=O)N(c2ccc3[nH]cnc3c2)C1C1CC1` (stereo not drawn) [Compound 266, 4-Acetyl-1-(1H-benzoimidazol-5-yl)-5-cyclopropyl-3-hydroxy-1,5-dihydro-pyrrol-2-one], 2290 nM. On to `CC(C)(C)C(=O)C1=C(O)C(=O)N(c2ccc3[nH]cnc3c2)C1c1cccc(F)c1F` (stereo not drawn) [Compound 383, 1-(1H-Benzoimidazol-5-yl)-5-(2,3-difluoro-phenyl)-4-(2,2-dimethyl-propionyl)-3-hydroxy-1,5-dihydro-pyrrol-2-one], for which, under “read-out: IC50”, the IC50 worked out at 4090 nM. Take `CCC1=C(O)C(=O)N(CCCn2ccnc2)C1c1cccc(Cl)c1` (stereo not drawn) [Compound 249, 5-(3-Chloro-phenyl)-4-ethyl-3-hydroxy-1-(3-imidazol-1-yl-propyl)-1,5-dihydro-pyrrol-2-one]: the IC50 (read-out: IC50) stood at 40 nM. Same read-out and setting: as for `CCCCCC1C(F)=C(O)C(=O)N1CCCn1ccnc1` (stereo not drawn) [Compound 2, 4-Fluoro-3-hydroxy-1-(3-imidazol-1-yl-propyl)-5-pentyl-1,5-dihydro-pyrrol-2-one], the figure is 4900 nM; as for `CC(=O)C1=C(O)C(=O)N(c2ccc3[nH]cnc3c2)C1c1cc(C)c(C)o1` (stereo not drawn) [Compound 433, 4-Acetyl-1-(1H-benzoimidazol-5-yl)-5-(4,5-dimethyl-furan-2-yl)-3-hydroxy-1,5-dihydro-pyrrol-2-one], 1210 nM. On the same count and under the same terms, as for `Cc1cccc(C2C(C(=O)C3CC3)=C(O)C(=O)N2c2ccc3[nH]cnc3c2)c1` (stereo not drawn) [Compound 260, 1-(1H-Benzoimidazol-5-yl)-4-cyclopropanecarbonyl-3-hydroxy-5-m-tolyl-1,5-dihydro-pyrrol-2-one], the figure is 40 nM. Regarding `Cc1ccc(C2C(c3ccc(O)cc3)=C(O)C(=O)N2CCCn2ccnc2)cc1` (stereo not drawn) [Compound 148, 3-Hydroxy-4-(4-hydroxy-phenyl)-1-(3-imidazol-1-yl-propyl)-5-p-tolyl-1,5-dihydro-pyrrol-2-one], the concentration for half-maximal inhibition (IC50) is, setting by setting: under setting [1], 152 nM; (read-out: IC50) 40 nM. Regarding `O=C1C(O)=C(c2ccc(O)cc2)C(C2=CCCCC2)N1CCCn1ccnc1` (stereo not drawn) [Compound 164, 5-Cyclohex-1-enyl-3-hydroxy-4-(4-hydroxy-phenyl)-1-(3-imidazol-1-yl-propyl)-1,5-dihydro-pyrrol-2-one], the IC50 (read-out: IC50) came out at 1300 nM.

In the case of `Cc1ccc2occ(C3C(c4ccc(O)cc4)=C(O)C(=O)N3c3ccc4[nH]cnc4c3)c(=O)c2c1` (stereo not drawn) [Compound 280, 1-(1H-Benzoimidazol-5-yl)-3-hydroxy-4-(4-hydroxy-phenyl)-5-(6-methyl-4-oxo-4H-chromen-3-yl)-1,5-dihydro-pyrrol-2-one], the IC50 (read-out: IC50) worked out at 310 nM.

With `CC1=C(O)C(=O)N(CCCn2ccnc2)C1C(F)(F)F` (stereo not drawn) [Compound 38, 3-Hydroxy-1-(3-imidazol-1-yl-propyl)-4-methyl-5-trifluoromethyl-1,5-dihydro-pyrrol-2-one], the IC50 (read-out: IC50) came to 2200 nM.

Turning to `O=C1C(O)=C(c2ccccc2)C(CO)N1CCCn1ccnc1` (stereo not drawn) [Compound 104, 3-Hydroxy-5-hydroxymethyl-1-(3-imidazol-1-yl-propyl)-4-phenyl-1,5-dihydro-pyrrol-2-one], the half-maximal inhibitory concentration (IC50) (read-out: IC50) is 40 nM. Turning to `CCC1=C(O)C(=O)N(CCCn2ccnc2)C1c1ccccc1O` (stereo not drawn) [Compound 230, 4-Ethyl-3-hydroxy-5-(2-hydroxy-phenyl)-1-(3-imidazol-1-yl-propyl)-1,5-dihydro-pyrrol-2-one], the IC50 (read-out: IC50) amounted to 40 nM. `O=C1C(O)=C(c2ccccc2)C(C2CCC=CO2)N1CCCn1ccnc1` (stereo not drawn) [Compound 93, 5-(3,4-Dihydro-2H-pyran-2-yl)-3-hydroxy-1-(3-imidazol-1-yl-propyl)-4-phenyl-1,5-dihydro-pyrrol-2-one]: the IC50 reads like this: under setting [1], 1670 nM; (read-out: IC50) 40 nM. `CCCCCC1=C(O)C(=O)N(CCCn2ccnc2)C1c1ccncc1` (stereo not drawn) [Compound 209, 3-Hydroxy-1-(3-imidazol-1-yl-propyl)-4-pentyl-5-pyridin-4-yl-1,5-dihydro-pyrrol-2-one]: the IC50 (read-out: IC50) turned out to be 40 nM.

Take `O=C1C(O)=C(c2ccccc2)C(c2c[nH]c3ccccc23)N1CCCn1ccnc1` (stereo not drawn) [Compound 97, 3-Hydroxy-1-(3-imidazol-1-yl-propyl)-5-(1H-indol-3-yl)-4-phenyl-1,5-dihydro-pyrrol-2-one]: under “read-out: IC50”, the IC50 amounted to 40 nM. As to `CCCCCC1=C(O)C(=O)N(c2ccc3[nH]cnc3c2)C1c1ccco1` (stereo not drawn) [Compound 456, 1-(1H-Benzoimidazol-5-yl)-5-furan-2-yl-3-hydroxy-4-pentyl-1,5-dihydro-pyrrol-2-one], the IC50 (read-out: IC50) is 4630 nM. Turning to `O=C(O)c1ccc(C2C(c3ccc(O)cc3)=C(O)C(=O)N2c2ccc3[nH]cnc3c2)o1` (stereo not drawn) [Compound 389, 5-[1-(1H-Benzoimidazol-5-yl)-4-hydroxy-3-(4-hydroxy-phenyl)-5-oxo-2,5-dihydro-1H-pyrrol-2-yl]-furan-2-carboxylic acid], the concentration for half-maximal inhibition (IC50) (read-out: IC50) came to 220 nM. As to `CC(C)C1=C(O)C(=O)N(CCCn2ccnc2)C1c1ccccn1` (stereo not drawn) [Compound 69, 3-Hydroxy-1-(3-imidazol-1-yl-propyl)-4-isopropyl-5-pyridin-2-yl-1,5-dihydro-pyrrol-2-one], the half-maximal inhibitory concentration (IC50) (read-out: IC50) is 4900 nM. `Cc1ccc(C2C(c3ccccc3)=C(O)C(=O)N2CCCn2ccnc2)o1` (stereo not drawn) [Compound 84, 3-Hydroxy-1-(3-imidazol-1-yl-propyl)-5-(5-methyl-furan-2-yl)-4-phenyl-1,5-dihydro-pyrrol-2-one]: the IC50 (read-out: IC50) came out at 2200 nM. As for `O=C1C(O)=C(c2ccccc2)C(c2c(O)ccc3ccccc23)N1CCCn1ccnc1` (stereo not drawn) [Compound 100, 3-Hydroxy-5-(2-hydroxy-naphthalen-1-yl)-1-(3-imidazol-1-yl-propyl)-4-phenyl-1,5-dihydro-pyrrol-2-one], the IC50 (read-out: IC50) turned out to be 400 nM. Consider `CC1=C(O)C(=O)N(CCCn2ccnc2)C1c1cccs1` (stereo not drawn) [Compound 45, 3-Hydroxy-1-(3-imidazol-1-yl-propyl)-4-methyl-5-thiophen-2-yl-1,5-dihydro-pyrrol-2-one], for which the IC50 (read-out: IC50) stood at 3100 nM.

With `CC1=C(O)C(=O)N(c2ccc3nc[nH]c3c2)C1c1c(F)cccc1F` (stereo not drawn) [Compound 473, 1-(1H-benzo[d]imidazol-6-yl)-5-(2,6-difluorophenyl)-3-hydroxy-4-methyl-1H-pyrrol-2(5H)-one], the Ki (compound from preparative synthesis, purified) stood at 29.2 nM. Further, where the note is “read-out: IC50”, the IC50 amounted to 259 nM. For `CC(C)C1=C(O)C(=O)N(CCCn2ccnc2)C1C1CCC=CO1` (stereo not drawn) [Compound 66, 5-(3,4-Dihydro-2H-pyran-2-yl)-3-hydroxy-1-(3-imidazol-1-yl-propyl)-4-isopropyl-1,5-dihydro-pyrrol-2-one], the IC50 (read-out: IC50) is 2200 nM. Consider `O=C1C(O)=C(c2ccccc2)C(c2cc[nH]n2)N1CCCn1ccnc1` (stereo not drawn) [Compound 81, 3-Hydroxy-1-(3-imidazol-1-yl-propyl)-4-phenyl-5-(1H-pyrazol-3-yl)-1,5-dihydro-pyrrol-2-one], for which the IC50 (read-out: IC50) worked out at 3100 nM. For the compound `CCC(C)C1C(F)=C(O)C(=O)N1CCCn1ccnc1` (stereo not drawn) [Compound 1, 5-sec-Butyl-4-fluoro-3-hydroxy-1-(3-imidazol-1-yl-propyl)-1,5-dihydro-pyrrol-2-one], the IC50 (read-out: IC50) came out at 3100 nM.

Usually IC50 stands for the concentration needed to halve the response being measured. The Ki is a measure of affinity in units of concentration, obtained from inhibition or displacement. Higher therefore signals weaker binding.
